Source: patent publication US5714363A, “Deacetoxycephalosporin C hydroxylase” (priority 1992, dated 1998)
Where a name gives a salt, the structure may show the parent alone. Read-outs that look alike come from different tables or passages of the source.

Experiments:
DAOC hydroxylase [1] = biological target: T1, DAOC hydroxylase (Streptomyces clavuligerus, UniProt P42220); experiment: DAOC hydroxylase activity assay (DAC formation from DAOC, HPLC at 260 nm); type: biochemical; design: The highly purified native enzyme (92% purity) has a molecular weight of 35,000 dalton; endogenous in cells; host or cells: Streptomyces clavuligerus cells (native producer; NRRL 18491 is named as preferred strain), enzyme purified from cell-free extract; conditions: for drop of maximum catalytic activity when not present: external ferrous ion, DTT and ascorbate both absent; for replacement of ferrous ion for enzymatic activity: ion in place of Fe2+; for reduction in enzyme activity: substitution of MOPS buffer at optimal pH; for Relative Activity (%): no additive = 100; for stimulation of catalytic activity: with Fe2+, α-ketoglutarate and O2
T1 sequence (P42220 1-318): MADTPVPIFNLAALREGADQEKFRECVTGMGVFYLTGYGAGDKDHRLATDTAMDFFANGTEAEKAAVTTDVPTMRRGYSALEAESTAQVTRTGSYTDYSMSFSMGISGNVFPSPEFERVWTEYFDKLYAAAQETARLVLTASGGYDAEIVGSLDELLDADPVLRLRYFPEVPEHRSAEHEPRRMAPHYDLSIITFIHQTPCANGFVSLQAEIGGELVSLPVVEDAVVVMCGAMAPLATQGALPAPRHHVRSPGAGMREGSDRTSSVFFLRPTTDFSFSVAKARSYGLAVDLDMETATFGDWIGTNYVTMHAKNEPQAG
Procedure: (§1) The activity of the DAOC hydroxylase is determined throughout the process by the following assay method. The hydroxylase activity was determined by monitoring DAC formation from DAOC at 260 nm with HPLC as described by Dotzlaf, J. E., and Yeh, W.-K. (1987) J. Bacteriol., 169, 1611-1618. […] The enzymatic reaction is initiated by adding the DAOC and the reaction is conducted for 20 minutes at 29° C. DAC formation is linear with reaction time for up to 40 minutes. One unit of enzyme activity is defined as the amount of hydroxylase required to cause formation of one μmol of DAC per minute from DAOC under the above-described assay conditions.
The specific activity of the hydroxylase is defined as units per milligram of protein.

DAOC hydroxylase [2] = biological target: T1, DAOC hydroxylase; experiment: Substrate specificity of purified DAOC hydroxylase; type: biochemical; design: The highly purified native enzyme (92% purity) has a molecular weight of 35,000 dalton; endogenous in cells; host or cells: Streptomyces clavuligerus cells (native producer; NRRL 18491 is named as preferred strain), enzyme purified from cell-free extract; conditions: for effectiveness as substrate: conditions for optimal catalysis; for Vmax (Percent Catalytic Activities, relative Vmax): relative to DAOC to DAC = 100, substrate of the reaction; for Sp. Activity (mU/mg) / Relative Activity (%): compound as substrate; for Relative Activity (%): relative to DAOC = 100
Procedure: Several compounds were evaluated as substrates for the purified enzyme to determine its substrate specificity. The compounds evaluated and the results are shown below in TABLE 4. The results were obtained by EPLC analysis.
as §1

[3] = Procedure: The DAOC hydroxylase is recognized as unstable and, accordingly, was difficult to isolate and obtain in a high state of purity from cell-free extracts.
The process of this invention comprises the use of a hydroxylase stabilizing buffer which is used both in the preparation of crude cell-free extracts of the enzyme and during the isolation and purification thereof. The stabilizing buffer, referred to herein as buffer A, comprises 15 mM MOPS buffer, pH 7.3, containing 1 mM uric acid, 1 mM mannitol and 0.1M KCl.

DAOC hydroxylase [4] = biological target: T1, DAOC hydroxylase; experiment: Kinetic parameters of DAOC hydroxylase (Lineweaver-Burk)
Procedure: as §1, with “DAC formation is linear with reaction time for up to 40 minutes.” left out

DAOC hydroxylase [5] = biological target: T1, DAOC hydroxylase; experiment: Stoichiometry of DAOC to DAC conversion; type: biochemical; design: The highly purified native enzyme (92% purity) has a molecular weight of 35,000 dalton; endogenous in cells; host or cells: Streptomyces clavuligerus cells (native producer; NRRL 18491 is named as preferred strain), enzyme purified from cell-free extract
Procedure: The stoichiometry of the hydroxylase conversion of DAOC to DAC was determined. The molar ratio for DAC-formation/DAOC-disappearance during a 3 h reaction remained in the range of 0.91-1.00 as shown by the plot in FIG. 2. The conversion of DAOC to DAC was only partially complete (58%) under the reaction conditions.

[6] = substrate: CC1=C(C(=O)O)N2C(=O)[C@@H](NC(=O)CCC[C@@H](N)C(=O)O)[C@H]2SC1; experiment: purified protein, by the assay type; conditions: other: saturated concentration of the other substrate (300 μM DAOC or α-KG); pH 7.3; 29.0 °C
[7] = substrate: O=C(O)CCC(=O)C(=O)O; experiment: purified protein, by the assay type; conditions: other: saturated concentration of the other substrate (300 μM DAOC or α-KG); pH 7.3; 29.0 °C

O=C1O[C@H]([C@@H](O)CO)C(O)=C1O [ascorbate]
drop of maximum catalytic activity when not present (DAOC hydroxylase [1]): ~80%

[Cu+2] [Cu^2+]
replacement of ferrous ion for enzymatic activity (DAOC hydroxylase [1]): not replaceable

CC1(C)S[C@@H]2[C@H](NC(=O)CCC[C@@H](N)C(=O)O)C(=O)N2[C@H]1C(=O)O [Penicillin N, penicillin N]
effectiveness as substrate (DAOC hydroxylase [2]): weak catalytic activity | Vmax (Percent Catalytic Activities, relative Vmax) (DAOC hydroxylase [2]): 1.4%

CCO [ethyl alcohol]
effect on the stability of the hydroxylase [3]: no effect

O=S(=O)(F)Cc1ccccc1 [phenylmethylsulfonyl fluoride]
effect on the stability of the hydroxylase ([3]; added during preparation of the extracts): no effect

O=S(=O)(O)CCN1CCN(CCO)CC1 [HEPES buffer]
reduction in enzyme activity (DAOC hydroxylase [1]): 7%

CC1=C(C(=O)O)N2C(=O)[C@@H](NC(=O)CCC[C@@H](N)C(=O)O)[C@H]2CC1 [Carba-DAOC, 1carba(1-dethia)deacetoxycephalosporin C]
Sp. Activity (mU/mg) (DAOC hydroxylase [2]): 3.0 mU/mg | Relative Activity (%) (DAOC hydroxylase [2]): 1.9% | effectiveness as substrate (DAOC hydroxylase [2]): did not serve as effective substrates

O=C(O)c1cc(SSc2ccc([N+](=O)[O-])c(C(=O)O)c2)ccc1[N+](=O)[O-] [DTNB, 5,5'-dithiobis2-nitrobenzoic acid]
Relative Activity (%) (DAOC hydroxylase [1]; additive 1 mM): 0%

[Ca+2] [Ca^2+]
replacement of ferrous ion for enzymatic activity (DAOC hydroxylase [1]): not replaceable

[Mn+2] [Mn^2+]
replacement of ferrous ion for enzymatic activity (DAOC hydroxylase [1]): not replaceable

O=C(O)CI [Iodoacetic acid]
Relative Activity (%) (DAOC hydroxylase [1]; additive 1 mM): 59%

OCCS [β-Mercaptoethanol]
stimulation of catalytic activity (DAOC hydroxylase [1]): little stimulating effect

CC1=C(C(=O)O)N2C(=O)[C@@H](NC(=O)CCC[C@H](N)C(=O)O)[C@H]2SC1 [Iso-DAOC, 7β-(Lα-aminoadipamido)-3-methyl-3-cephem-4-carboxylic acid]
Sp. Activity (mU/mg) (DAOC hydroxylase [2]): 1.3 mU/mg | Relative Activity (%) (DAOC hydroxylase [2]): 0.8% | effectiveness as substrate (DAOC hydroxylase [2]): did not serve as effective substrates

[Na+] [sodium]
replacement of ferrous ion for enzymatic activity (DAOC hydroxylase [1]): not replaceable

[K+] [potassium]
replacement of ferrous ion for enzymatic activity (DAOC hydroxylase [1]): not replaceable

C=C1CS[C@@H]2[C@H](NC(=O)CCC[C@@H](N)C(=O)O)C(=O)N2C1C(=O)O (stereo partly drawn) [EMCC, 7β-(D-α-aminoadipamido)-3-exomethylenecepham-4-carboxylic acid]
Sp. Activity (mU/mg) (DAOC hydroxylase [2]): 58.1 mU/mg | Relative Activity (%) (DAOC hydroxylase [2]): 36.5% | effectiveness as substrate (DAOC hydroxylase [2]): fairly efficient | Vmax (Percent Catalytic Activities, relative Vmax) (DAOC hydroxylase [2]): 37%

[Zn+2] [Zn^2+]
replacement of ferrous ion for enzymatic activity (DAOC hydroxylase [1]): not replaceable

O=C(O)CN(CCN(CC(=O)O)CC(=O)O)CC(=O)O [EDTA, ethylenediamine tetraacetic acid]
Relative Activity (%) (DAOC hydroxylase [1]; additive 0.05 mM): 16% | Relative Activity (%) (DAOC hydroxylase [1]; additive 0.5 mM): 0%

[Fe+2] [ferrous ion]
Ka of the hydroxylase (DAOC hydroxylase [4]; activator ferrous ion): 20 µM | enzymatic activity without external Fe2+ (DAOC hydroxylase [1]; no external Fe2+): 2 % of maximum

[Ni+2] [Ni^2+]
replacement of ferrous ion for enzymatic activity (DAOC hydroxylase [1]): not replaceable

[Fe+3] [ferric ion]
replacement of ferrous ion for enzymatic activity (DAOC hydroxylase [1]): can replace ferrous ion with retention of maximum activity

CC1=C(C(=O)O)N2C(=O)[C@@H](NC(=O)CCC[C@@H](N)C(=O)O)[C@H]2SC1 [DAOC, deacetoxycephalosporin C]
Sp. Activity (mU/mg) (DAOC hydroxylase [2]): 159.2 mU/mg | Relative Activity (%) (DAOC hydroxylase [2]): 100% | Vmax (Percent Catalytic Activities, relative Vmax) (DAOC hydroxylase [2]): 100% | conversion of DAOC to DAC (DAOC hydroxylase [5]; 3 h reaction): 58% | molar ratio DAC-formation/DAOC-disappearance (DAOC hydroxylase [5]; during a 3 h reaction): 0.91-1.00

[Co+2] [Co^2+]
replacement of ferrous ion for enzymatic activity (DAOC hydroxylase [1]): not replaceable

Nc1ncnc2c1ncn2[C@@H]1O[C@H](COP(=O)(O)OP(=O)(O)OP(=O)(O)O)[C@@H](O)[C@H]1O [ATP]
stimulation of catalytic activity (DAOC hydroxylase [1]): not

N[C@@H](CCC(=O)N[C@@H](CS)C(=O)NCC(=O)O)C(=O)O [Reduced glutathione]
stimulation of catalytic activity (DAOC hydroxylase [1]): as effective

NC(CO)(CO)CO [Tris-HCl buffer]
reduction in enzyme activity (DAOC hydroxylase [1]): 27%

CCN1C(=O)C=CC1=O [NEM, Nethylmaleimide]
Relative Activity (%) (DAOC hydroxylase [1]; additive 1 mM): 24%

O[C@H](CS)[C@H](O)CS (racemic) [DTT, dithiothreitol]
drop of maximum catalytic activity when not present (DAOC hydroxylase [1]): ~80% | stimulation of catalytic activity (DAOC hydroxylase [1]): stimulated

c1cnc2c(c1)ccc1cccnc12 [o-Phenanthroline]
Relative Activity (%) (DAOC hydroxylase [1]; additive 0.05 mM): 81% | Relative Activity (%) (DAOC hydroxylase [1]; additive 0.5 mM): 0%

[Mg+2] [Mg^2+]
replacement of ferrous ion for enzymatic activity (DAOC hydroxylase [1]): not replaceable

B1: DAOC hydroxylase (Streptomyces clavuligerus) (protein)
chain: MADTPVPIFNLAALREGADQEKFRECVTGMGVFYLTGYGAGDKDHRLATDTAMDFFANGTEAEKAAVTTDVPTMRRGYSALEAESTAQVTRTGSYTDYSMSFSMGISGNVFPSPEFERVWTEYFDKLYAAAQETARLVLTASGGYDAEIVGSLDELLDADPVLRLRYFPEVPEHRSAEHEPRRMAPHYDLSIITFIHQTPCANGFVSLQAEIGGELVSLPVVEDAVVVMCGAMAPLATQGALPAPRHHVRSPGAGMREGSDRTSSVFFLRPTTDFSFSVAKARSYGLAVDLDMETATFGDWIGTNYVTMHAKNEPQAG
Km [6]: 50 µM | Km [7]: 10 µM

B2: DAOC hydroxylase: enzyme from Streptomyces clavuligerus converting DAOC to DAC; monomeric, about 35,000 dalton (protein, UniProt P42220 2-318, looked up)
Deacetoxycephalosporin C …: ADTPVPIFNLAALREGADQEKFRECVTGMGVFYLTGYGAGDKDHRLATDTAMDFFANGTEAEKAAVTTDVPTMRRGYSALEAESTAQVTRTGSYTDYSMSFSMGISGNVFPSPEFERVWTEYFDKLYAAAQETARLVLTASGGYDAEIVGSLDELLDADPVLRLRYFPEVPEHRSAEHEPRRMAPHYDLSIITFIHQTPCANGFVSLQAEIGGELVSLPVVEDAVVVMCGAMAPLATQGALPAPRHHVRSPGAGMREGSDRTSSVFFLRPTTDFSFSVAKARSYGLAVDLDMETATFGDWIGTNYVTMHAKNEPQAG
Vmax of the hydroxylase (DAOC hydroxylase [4]; DAOC to DAC, optimal reaction conditions): 0.45 μM of DAC formed per minute per milligram of protein | half-life ([3]; crude extract in stabilizing buffer A (15 mM MOPS pH 7.3, 1 mM uric acid, 1 mM mannitol, 0.1M KCl)): 72 h | half-life ([3]; crude extract, 4° C., 15 mM Tris-HCl buffer, pH 7.5): 12 h | improvement of half-life over Tris-HCl buffer ([3]; stabilizing buffer A): 6 fold
